According to patent publication US20160106102A1, “KNOWN AND NEW HETEROCYCLIC COMPOUNDS AS PEST CONTROL AGENTS” (BAYER CROPSCIENCE AKTIENGESELLSCHAFT, priority 2013, published 2016):
Read-outs that look alike come from different tables or passages of the source.

Columns and labels:
Myzus persicae [1] = assay: Myzus persicae - sachet test; assay type: in vivo; settings: 100% = all animals killed
Summary of the method: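 Active ingredient dissolved with 2% N-methylpyrrolidone and 2% diacetone alcohol, diluted in water, then pipetted into nutrient medium. Plate sealed and paired with a plate carrying green peach aphids. Kill in % scored after the set time (100% = all dead, 0% = none dead).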

Myzus persicae [2] = assay: Myzus persicae - spray test; assay type: in vivo; settings: application rate of 500 g/ha, after 6 days, sprayed Chinese cabbage leaf discs infested by all stages, 100% = all aphids killed
Summary of the method: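 Chinese cabbage leaf discs infested with all stages of green peach aphid sprayed with compound in acetone/DMF formulation with alkylaryl polyglycol ether emulsifier, diluted in emulsifier-containing water. Efficacy (% aphids killed) assessed after 6 days.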

Phaedon cochleariae = Phaedon cochleariae - spray test (PHAECO); assay type: in vivo; settings: application rate of 500 g/ha; after 7 days; larvae of the mustard beetle on sprayed Chinese cabbage leaf discs; 100% = all larvae killed
Protocol: Phaedon cochleariae—Spray Test (PHAECO)
(§1) Solvent: 78.0 parts by weight of acetone • • 1.5 parts by weight of dimethylformamide
(§2) Emulsifier: alkylaryl polyglycol ether
(§3) To produce an appropriate active ingredient formulation, 1 part by weight of active ingredient is dissolved using the specified parts by weight of solvent and made up with water containing an emulsifier concentration of 1000 ppm until the desired concentration is attained. To produce further test concentrations, the preparation is diluted with emulsifier-containing water.
Discs of Chinese cabbage leaves (Brassica pekinensis) are sprayed with an active ingredient formulation of the desired concentration and, after drying, populated with larvae of the mustard beetle (Phaedon cochleariae).
After 7 days, the efficacy in % is determined. 100% means that all the beetle larvae have been killed; 0% means that no beetle larvae have been killed.

[3] = log P determination by LC-MS in the acidic range; assay type: physicochemical
From the text: The LC-MS determination in the acidic range is effected at pH 2.7 using 0.1% aqueous formic acid and acetonitrile (contains 0.1% formic acid) as eluents, linear gradient from 10% acetonitrile to 95% acetonitrile. Alternatively, the determination is effected in the acidic range at pH 2.3 using 0.1% aqueous phosphoric acid and acetonitrile as eluents; linear gradient from 10% acetonitrile to 95% acetonitrile.

Spodoptera frugiperda = Spodoptera frugiperda - spray test (SPODFR); assay type: in vivo; settings: application rate of 500 g/ha; after 7 days; armyworm caterpillars on sprayed maize leaf discs; 100% = all caterpillars killed
Protocol: Spodoptera frugiperda—Spray Test (SPODFR)
as §1, §2, §3
Leaf discs of maize (Zea mays) are sprayed with an active ingredient formulation of the desired concentration and, after drying, populated with caterpillars of the armyworm (Spodopterafrugiperda).
After 7 days, the efficacy in % is determined. 100% means that all the caterpillars have been killed; 0% means that no caterpillars have been killed.

Tetranychus urticae = Tetranychus urticae - spray test, OP-resistant (TETRUR); assay type: in vivo; settings: application rate of 500 g/ha; after 6 days; bean leaf discs infested by all stages; 100% = all spider mites killed
Protocol: Tetranychus urticae—spray test, OP-resistant (TETRUR)
as §1, §2, §3
Discs of bean leaves (Phaseolus vulgaris) infested by all stages of the greenhouse red spider mite (Tetranychus urticae) are sprayed with an active ingredient formulation of the desired concentration.
After 6 days, the efficacy in % is determined. 100% means that all the spider mites have been killed; 0% means that no spider mites have been killed.

[4] = application rate of 6 ppm in nutrient medium
[5] = application rate of 30 ppm in nutrient medium

| SMILES | efficacy (kill in %) (Myzus persicae [1]; [4]) [%] | efficacy (kill in %) (Myzus persicae [1]; [5]) [%] | efficacy in % (Myzus persicae [2]) [%] | log P (acid) ([3]; LC-MS in the acidic range) | further results |
| --- | --- | --- | --- | --- | --- |
| Cc1cc(N(C)C(=O)c2cccnc2)nn1Cc1ncccn1 [Compound I-1-346] | 100 | 100 | 100 | 0.63 | efficacy in % (Phaedon cochleariae): 100% |
| O=C(Nc1ccn(-c2ncccc2Cl)n1)c1cccnc1 [Compound I-1-48] | – | 100 | – | 1.25 | efficacy in % (Phaedon cochleariae): 100%; efficacy in % (Spodoptera frugiperda): 100% |
| CCC(C)n1nc(NC(=O)c2cccnc2)cc1C (stereo not drawn) [Compound I-1-205] | – | 100 | 100 | 1.59 | efficacy in % (Tetranychus urticae): 90% |
| CCCC(=O)n1nc(NC(=O)c2cccnc2)cc1C [Compound I-1-131] | 100 | 100 | 90 | 1.94 | efficacy in % (Tetranychus urticae): 90%; efficacy in % (Phaedon cochleariae): 100%; efficacy in % (Spodoptera frugiperda): 100% |
| CCC(CC)n1nc(NC(=O)c2cccnc2)cc1C [Compound I-1-210] | – | 80 | – | 1.92 | efficacy in % (Tetranychus urticae): 90% |
| Cc1cc(NC(=O)c2cccnc2)nn1C(=O)C(C)C [Compound I-1-130] | 100 | 100 | 90 | 1.95 | efficacy in % (Phaedon cochleariae): 100%; efficacy in % (Spodoptera frugiperda): 100% |
| Cc1nc(Cn2nc(NC(=O)c3cccnc3)cc2C)no1 [Compound I-1-282] | 100 | 100 | 90 | 0.9 | efficacy in % (Tetranychus urticae): 90% |
| Cc1cc(N(C(=O)c2cccnc2)C(=O)c2cccc(Cl)c2)nn1C(=O)c1cccc(Cl)c1 [Compound I-1-22] | 100 | 100 | 100 | 3.98 | efficacy in % (Phaedon cochleariae): 83%; efficacy in % (Spodoptera frugiperda): 83% |
| Cc1cc(NC(=O)c2cccnc2)nn1C [Compound I-1-3] | 100 | 100 | 90 | 0.63 | – |
| O=C(Nc1ccn(C(CF)CF)n1)c1cccnc1 [Compound I-1-65] | 100 | 100 | 90 | 0.84 | – |
| Cc1cc(NC(=O)c2cccnc2)nn1Cn1cccn1 [Compound I-1-225] | 100 | 100 | 100 | 0.94 | – |
| CCOC(=O)CN(C)C(=O)Cn1nc(NC(=O)c2cncc(F)c2)cc1C [Compound I-1-61] | – | 100 | 80 | 1.35 | HPLC-MS: log P ([3]; values given in the synthesis examples and NMR lists): Compound No. I-1-61: HPLC-MS: logP = 1.35; mass (m/z): 378.1 (M + H)^+; 1H NMR (CD3CN) 1.21-1.28 (m, |
| CCSCCn1nc(NC(=O)c2cccnc2)cc1C [Compound I-1-189] | 100 | 100 | 90 | 1.53 | – |
| COc1ccc([N+](=O)[O-])cc1Cn1cnc(NC(=O)c2cccnc2)n1 [Compound I-2-4] | – | 100 | 90 | – | log P (acid) ([3]; Table 2, compounds of the formula (I-2), acidic range pH 2.7 or pH 2.3): 1.13 |
| Cc1cc(NC(=O)c2cccnc2)nn1Cc1nc2ccc(Cl)cc2o1 [Compound I-1-342] | 100 | 100 | 90 | 1.82 | – |
| Cc1cc(NC(=O)c2cccnc2)nn1CCC#N [Compound I-1-185] | 100 | 100 | 100 | 0.57 | – |
| Cc1cnn(Cn2nc(NC(=O)c3cccnc3)cc2C)c1 [Compound I-1-226] | 100 | 100 | 100 | 1.24 | – |
| Cc1cc(NC(=O)c2cncc(F)c2)nn1Cc1ncccn1 [Compound I-1-7, 5-Fluoro-N-[5-methyl-1-(pyrimidin-2-ylmethyl)-1H-pyrazol-3-yl]nicotinamide] | – | – | – | – | pest or weed control at 6 ppm (Myzus persicae [1]; Myzus persicae, application rate of 6 ppm in nutrient medium, read-out: efficacy (kill in %)): 100%; pest or weed control at 30 ppm (Myzus persicae [1]; Myzus persicae, application rate of 30 ppm in nutrient medium, read-out: efficacy (kill in %)): 100%; pest or weed control at 500 g/ha (Myzus persicae [2]; Myzus persicae, foliar, 144 h, read-out: efficacy in %): 90%; chromatographic logP ([3]; pH 2.7, LC-MS in the acidic range, read-out: log P (acid)): 1.11; chromatographic logP ([3]; pH 2.7, values given in the synthesis examples and NMR lists, read-out: HPLC-MS: log P): 1.11 |
| Cc1cc(NC(=O)c2cccnc2)nn1Cc1cscn1 [Compound I-1-295] | 100 | 100 | 100 | 0.95 | – |
| Cc1cc(NC(=O)c2cccnc2)nn1C[S+](C)[O-] (stereo not drawn) [Compound I-1-243] | 100 | 100 | 100 | 0.19 | – |
| Cc1cc(NC(=O)c2cccnc2)nn1C(=O)NCc1cccnc1 [Compound I-1-330] | 100 | 100 | 90 | 0.64 | – |
| Cc1cc(NC(=O)c2cccnc2)nn1C(=O)NCCOC(F)(F)F [Compound I-1-172] | 100 | 100 | 90 | 1.91 | – |
| Cc1cc(NC(=O)c2cccnc2)nn1C(=O)NCC1COC(C)(C)O1 (stereo not drawn) [Compound I-1-164] | 100 | 100 | 90 | 1.56 | – |
| Cc1cc(NC(=O)c2cccnc2)nn1Cn1c(C)nn(C)c1=O [Compound I-1-148] | 100 | 100 | 90 | 0.74 | – |
| O=C(Nc1ccn(-c2ccccn2)n1)c1cccnc1 [Compound I-1-52] | 100 | 100 | 90 | 1.32 | – |
